Laboratory results taken from patent publication US20210263120A1, “METHOD OF PERSONALIZED TREATMENT FOR CARDIOMYOPATHY AND HEART FAILURE AND ASSOCIATED DISEASES BY MEASURING EDEMA AND CACHEXIA/SARCOPENIA” (priority 2018, published 2021).

Legend:
[1] = biological target: T1, mouse renin (Mus musculus, UniProt P06281); test: Plasma renin activity assay (FRET) in plasma of treated DCM mice; assay type: in vivo; details: DCM mice at 90 days, vs. untreated DCM control
T1 construct: Renin enzymatic activity from EDTA-aprotinin supplemented mouse plasma samples; from tissue
T1 sequence (P06281 72-402): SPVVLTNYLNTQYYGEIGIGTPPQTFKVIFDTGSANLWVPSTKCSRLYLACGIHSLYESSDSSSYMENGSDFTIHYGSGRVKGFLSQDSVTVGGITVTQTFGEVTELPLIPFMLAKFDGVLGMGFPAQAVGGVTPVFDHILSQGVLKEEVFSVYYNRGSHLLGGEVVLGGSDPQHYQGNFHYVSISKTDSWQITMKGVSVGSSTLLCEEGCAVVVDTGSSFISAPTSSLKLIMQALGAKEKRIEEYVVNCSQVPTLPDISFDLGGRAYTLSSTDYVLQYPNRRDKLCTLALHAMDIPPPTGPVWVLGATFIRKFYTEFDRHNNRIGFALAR
Description: Plasma samples were aliquoted and stored at −80° C. until analysis.

[2] = system: plasma aldosterone; test: Enzyme immunoassay of plasma aldosterone in treated DCM mice; assay type: in vivo, mouse; details: DCM mice at 90 days, vs. untreated DCM control
Text: (§1) Mice: Dilated cardiomyopathy (DCM) is a major cause of HF, which is associated with pathological dilation of the heart ventricles and declines in heart contractile or systolic function. A well-established, translational mouse model of DCM with reduced ejection fraction (rEF) fulfills the criteria of the American Heart Association Scientific Statement for Animal Models of Heart Failure was utilized in the examples below. The mice used for this study were randomly assigned female littermates with or without (DCM on a C57BL/6 background. DCM mice express a transgene dominant-negative CREB transcription factor specific to cardiomyocytes and consistently develop the progressive stages (A-D) of HF similar to those described for humans. In female mice with DCM renal function remains within a normal range up to the terminal HF stage, as measured by plasma BUN and creatinine. DCM+vehicle (n=28) and DCM+DRI (n=29) were compared to each other. A group of congenic WT mice (n=20) was used for reference. In sub-groups of 90-day old mice (n=8/group), terminal blood was collected via cardiocentesis with ethylenediaminetetraacetic acid (EDTA)-aprotinin syringes to prevent proteolysis of targeted proteins and dissected organs were weighed. […] All analysis and health/death reports were recorded by investigators and animal facility technicians who were blinded to the mouse genotype. […]

[3] = system: female mice with dilated cardiomyopathy (DCM); test: Kaplan-Meier survival of female mice with DCM; assay type: in vivo, mouse
Text: (§2) Mice: Dilated cardiomyopathy (DCM) is a major cause of HF, which is associated with pathological dilation of the heart ventricles and declines in heart contractile or systolic function. A well-established, translational mouse model of DCM with reduced ejection fraction (rEF) fulfills the criteria of the American Heart Association Scientific Statement for Animal Models of Heart Failure was utilized in the examples below. The mice used for this study were randomly assigned female littermates with or without (DCM on a C57BL/6 background. DCM mice express a transgene dominant-negative CREB transcription factor specific to cardiomyocytes and consistently develop the progressive stages (A-D) of HF similar to those described for humans. In female mice with DCM renal function remains within a normal range up to the terminal HF stage, as measured by plasma BUN and creatinine. DCM+vehicle (n=28) and DCM+DRI (n=29) were compared to each other. A group of congenic WT mice (n=20) was used for reference. In sub-groups of 90-day old mice (n=8/group), terminal blood was collected via cardiocentesis with ethylenediaminetetraacetic acid (EDTA)-aprotinin syringes to prevent proteolysis of targeted proteins and dissected organs were weighed. The blood samples were centrifuged at 3000 rpm for 20 min at 4° C. Plasma samples were aliquoted and stored at −80° C. until analysis. All analysis and health/death reports were recorded by investigators and animal facility technicians who were blinded to the mouse genotype.
(§3) Aliskiren water was provided ad libitum throughout life.
Statistical Analysis: Statistical analyses were performed with GraphPad Prism 7.04 software (GraphPad Software, La Jolla, Calif., USA) using Student's t-test, one-way ANOVA, or two-way ANOVA with Tukey's multiple comparisons test (unless otherwise indicated) and Pearson's correlation. Survival was analyzed using Kaplan-Meier curves with the Mantel-Cox test. Differences were considered significant if p≤0.05. Data are represented as mean±SE.

[4] = system: female mice with dilated cardiomyopathy (DCM); test: Echocardiography at 90 days in DCM mice; assay type: in vivo, mouse; details: 90 days of age
[5] = system: female mice with dilated cardiomyopathy (DCM); test: Morphometric changes (heart and lung weight to body weight) at 90 days; assay type: in vivo, mouse; details: 90 days of age
Text: as §1

[6] = system: female mice with dilated cardiomyopathy (DCM); test: Body composition by quantitative magnetic resonance (QMR, EchoMRI); assay type: in vivo, mouse
Text: as §2, §3
Body Composition: Body composition was objectively quantified by a single-blinded and experienced operator. Bodyweight, free water (systemic extracellular water, ECW), total water, body fat, and lean mass were recorded longitudinally. Mice were measured every tenth day between 50-100 days using quantitative magnetic resonance (QMR) technology with an EchoMRI™ 4-in-1 Analyzer (Echo Medical Systems, Houston, Tex., USA). The machine was calibrated daily per standard operating procedure using the provided canola oil (54.3 g) phantom. Briefly, mice were weighed (Scout Pro SP401, Ohaus Corporation, Pine Brook, N.J., USA) and loaded into a tube restrainer specific to the system. Mice were fully conscious and minimally restrained throughout each 60-90 s recording and were returned to their home enclosure following measurement.

[7] = 100 mg/kg/day orally via drinking water, throughout the treatment period
Description: Dose calculations were based on an average consumption of 5 mL of water/day/mouse. […] The oral dose was chosen to closely mimic the human route of delivery, while not altering the blood pressure, associated with elevated plasma Ang II-aldosterone levels, given the low bioavailability of the drug in rodents. […] The administration was started at 50 days of age to coincide with the previously identified timeline of increased renin activity and development of stage B HF in female DCM mice]. […] All untreated mice (WT and DCM+vehicle) received ad lib 3 ppm hyperchlorinated facility water via an automated watering system (Edstrom, Waterford, Wis., USA).

[8] = humans; cited from earlier work

COCCCOc1cc(C[C@@H](C[C@H](N)[C@@H](O)C[C@H](C(=O)NCC(C)(C)C(N)=O)C(C)C)C(C)C)ccc1OC [aliskiren, aliskiren hemifumarate]
plasma renin activity [1]: significantly reduced elevated plasma renin activity to normal levels | plasma aldosterone levels [2]: not modulated by treatment | survival gain expressed as human years ([3]; assuming an 80-year lifespan): 5.6 human years | median survival ([3]; female DCM mice, 100 mg/kg/day from 50 days of age, control 103 days): 110 days | increase in survival vs. control DCM mice ([3]; female DCM mice, median survival +DRI vs. control): 7% | absolute increase in EF vs. DCM+vehicle [4]: 5% | heart rate ([4]; anesthetized, control 419±10): 469±14 bpm | cardiac output (CO; mL/min) ([4]; vs. DCM control): improved | ejection fraction (EF %) ([4]; vs. DCM control): improved | fractional shortening (FS %) ([4]; vs. DCM control): improved | reduction of the gross increase in cardiac weight of control (DCM+vehicle) mice [5]: 20.4% | systemic extracellular water (ECW) ([6]; 100 days of age, QMR): significantly higher in DCM+vehicle vs. DCM+DRI mice | combined fat and lean mass (wasting/cachexia) ([6]; 100 days, QMR): combined losses of fat and lean mass in DCM control mice by 100 days relative to WT (p<0.0001) and DCM+DRI mice | lean body mass ([6]; 100 days, QMR): significant decline in lean body mass in DCM control mice at 100 days, consistent with sarcopenia, by comparison to DCM+DRI and WT mice | development of Stage C HF / ECW accumulation (edema) ([6]; DCM+DRI vs. DCM+vehicle): delayed development of Stage C HF | body weights ([6]; at 90 days): not significantly different between groups | body weights ([6]; at 100 days): weights appeared to decline in DCM+vehicle controls compared to WT and DCM+DRI mice | body fat ([6]; through 100 days, QMR): maintenance of fat levels similar to WT through 100 days | side effects or abnormal clinical observations [7]: no side effects or abnormal clinical observations | bioavailability [8]: low
